In US20220119355A1, “SATURATED-RING-FUSED DIHYDROPYRIMIDINONE OR DIHYDROTRIAZINONE COMPOUNDS AND PHARMACEUTICAL USE THEREOF” (Japan Tobacco Inc., priority 2018, published 2022) one finds EC50 data, which are given here for 26 compounds.

Test [1] has as its target T1, human RORγ (Homo sapiens, UniProt P51449).
T1 construct: from Ser253 to Lys518 for human RORγ; expressed in transfected cells; host or cells: CHO cells (transient co-transfection with pG5-Luc)
T1 sequence (P51449 253-518): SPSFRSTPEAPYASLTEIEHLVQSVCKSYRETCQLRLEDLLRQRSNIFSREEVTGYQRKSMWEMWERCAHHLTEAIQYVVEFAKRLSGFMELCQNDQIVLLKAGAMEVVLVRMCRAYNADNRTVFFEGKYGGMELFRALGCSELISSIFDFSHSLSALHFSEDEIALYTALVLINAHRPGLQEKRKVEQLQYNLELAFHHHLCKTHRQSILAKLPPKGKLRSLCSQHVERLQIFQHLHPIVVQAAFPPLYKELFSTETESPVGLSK
Nature of the test: In-vitro reporter gene assay for inhibitory activity against RORγ transcription, Test Method A (GAL4-hRORγ LBD / pG5-Luc in CHO cells). It counts as cell-based. The note with it: luciferase reporter, 2 days. The procedure: (§1) In-Vitro Assay for Inhibitory Activity Against RORγ Transcription
(§2) Inhibitory activity against RORγ transcription was assessed for test compounds by either of the following Test Method A or B of reporter gene assay.
(§3) cDNAs encoding human and mouse RORγ ligand binding domains (LBD) were obtained based on the sequences of human RORγ (Genbank registered number NM_005060.3) and mouse RORγ (Genbank registered number NM_011281.2) (LBD sequences: from Ser253 to Lys518 for human RORγ; from Ile251 to Lys516 for mouse RORγ).
(§4) LBD cDNAs of human and mouse RORγ were inserted into pFA-CMV vector (Stratagene), which expresses GAL4-DNA binding domain fusion protein. The resulting plasmids are hereinafter referred to as GAL4-hRORγ plasmid and GAL4-mRORγ plasmid, respectively.
(§5) GAL4-hRORγ plasmid or GAL4-mRORγ plasmid was transiently co-transfected into Chinese hamster ovary cells (CHO cells) with pG5-Luc (Promega), reporter plasmid expressing firefly luciferase in a GAL4-dependent manner.
(§6) TransIT (Registered trademark) CHO Transfection Kit (Mirus) was used to co-transfect CHO cells with the plasmids. One day prior to the assay, CHO cells were suspended in HAM F-12 Nutrient medium containing 10% (v/v) fetal bovine serum and seeded at 6×10^6 cells per 175 cm^2 cell culture flask each. 54 μL of TransIT (Registered trademark) CHO reagent was added into a 15 mL tube containing 1.16 mL of HAM F-12 Nutrient medium without fetal bovine serum, and then mixed and incubated at room temperature for 10 minutes. 36 μL of a plasmid solution containing 400 ng of GAL4-hRORγ plasmid, 9000 ng of pG5-Luc plasmid, and 8600 ng of pcDNA3 plasmid were added into the tube and mixed gently. In the case of mouse assay, a plasmid solution containing 250 ng of GAL4-mRORγ plasmid, 9000 ng of pG5-Luc plasmid, and 8750 ng of pcDNA3 plasmid was added, instead. The mixture was incubated at room temperature for 10 minutes. 9 μL each of CHO Mojo Reagent were then added into each tube and mixed gently. The mixture was incubated at room temperature for 10 minutes. The resulting transfection reagent was applied to the cell culture. After incubation at 37° C., 5% CO2 for 4 hours, the plasmid-transfected CHO cells were harvested by trypsin treatment. The collected cells were resuspended in culture medium and plated into a 384-well-white plate at 8,000 cells/50 μL/well. The plate was let stand at room temperature for 1 hour and then further incubated at 37° C., 5% CO2 for 3 hours. A test compound was dissolved in DMSO to obtain a concentration of 10 mM. Each solution was serially diluted with DMSO and further diluted with culture medium just before use. The test compound solutions were added. to the cells in the plate at 8 different concentrations. The final concentration of DMSO was 0.2% (v/v). After the addition of test compound, the cells were incubated at […], 5% CO2 for 2 days.
(§7) RORγ transcriptional activity was detected as the intracellular luciferase activity using SteadyLite HTS Reporter Gene Assay System (Perkin Elmer). SteadyLite Reagent was diluted five-fold with Extension buffer (10 mM Tricine, 0.2% (w/v) bovine serum albumin, 0.02% (v/v) Tween-20) to obtain a luciferase substrate solution. After the measurement of the cell viability with Resazurin, the medium was removed in the plate and the luciferase substrate solution was added thereto. After the incubation at room temperature for 10 minutes, luminescence of each well was measured with a microplate reader. The luciferase activity derived from the luminescence count in a vehicle-control well treated with 0.2% DMSO alone was defined as 100%, and the luciferase activity after treatment with the test compound was calculated as a percentage, %-of-control, based on the value of the vehicle-control. An EC50 value of the test compound was calculated by curve fitting with GraphPad Prism. The luminescence counts at the concentration of test compound where cytotoxicity was observed were excluded from data analysis. […]

The target of test [2] is T2, mouse RORγ (Mus musculus, UniProt P51450).
T2 construct: from Ile251 to Lys516 for mouse RORγ; expressed in transfected cells; host or cells: CHO cells (transient co-transfection with pG5-Luc)
T2 sequence (P51450 251-516): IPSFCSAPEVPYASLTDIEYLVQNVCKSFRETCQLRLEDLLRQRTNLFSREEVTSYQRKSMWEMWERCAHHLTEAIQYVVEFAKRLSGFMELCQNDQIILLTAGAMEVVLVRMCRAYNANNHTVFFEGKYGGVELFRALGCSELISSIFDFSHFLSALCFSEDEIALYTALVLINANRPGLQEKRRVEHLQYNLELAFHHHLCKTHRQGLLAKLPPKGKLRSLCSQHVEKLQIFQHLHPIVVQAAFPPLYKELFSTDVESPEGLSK
Nature of the test: In-vitro reporter gene assay for inhibitory activity against RORγ transcription, Test Method A (GAL4-mRORγ LBD / pG5-Luc in CHO cells). The note with it: luciferase reporter, 2 days. It counts as cell-based. The procedure:
as §1, §2, §3, §4, §5, §6, §7

Molecules are shown by their SMILES.

`CC(C)(C)CCc1ccc(C23CCC(C)(C)CC2=CN(CCC(=O)O)C(=O)N3)cc1Cl` (racemic) [Example 74]: the results for the EC50 in test [1] and in test [2] were 0.016 µM and 0.024 µM, respectively.
As for `CC(C)(C)CCc1ccc(C23CCC(C)(C)C2=CN(CCC(=O)O)C(=O)N3)cc1Cl` (single isomer, unassigned) [Example 3, 3-{7a-[3-Chloro-4-(3,3-dimethyl-butyl)phenyl]-5,5-dimethyl-2-oxo-1,2,5,6,7,7a-hexahydro-cyclopentapyrimidin-3-yl}propionate], the EC50 was determined as 0.008 µM in test [1] and 0.013 µM in test [2].
As for `CC(C)(C)CCc1ccc(C23CCC(C)(C)C2=CN(CCC(=O)O)C(=O)N3)cc1Cl` (single isomer, unassigned) [Example 4], the values for the EC50 in test [1] and in test [2] were 1.02 µM and 1.01 µM, respectively.
Consider `CC(C)(C)CCc1ccc(C23COC(C)(C)C2=CN(CCC(=O)O)C(=O)N3)cc1Cl` (single isomer, unassigned) [Example 5], for which the figures for the EC50 in test [1] and in test [2] were 0.007 µM and 0.009 µM, respectively.
Take `CC(C)(C)CCc1ccc(C23COC(C)(C)C2=CN(CCC(=O)O)C(=O)N3)cc1Cl` (single isomer, unassigned) [Example 6]: the figures for the EC50 in test [1] and in test [2] were 0.554 µM and 0.714 µM, respectively.
For `CC(C)(C)CCc1ccc(C23COC(C)(C)C2=CN(c2ccc(C(=O)O)cc2)C(=O)N3)cc1Cl` (single isomer, unassigned) [Example 7] the same measures were 0.009 µM and 0.011 µM.
For the compound `CC(C)(C)CCc1ccc(C23COC(C)(C)C2=CN(c2ccc(C(=O)O)cc2)C(=O)N3)cc1Cl` (single isomer, unassigned) [Example 8], the EC50 was 0.427 µM in test [1] and 0.381 µM in test [2].
For `CC(C)(C)CCc1ccc([C@]23CCC(C)(C)C2=CN(c2ccc(C(=O)O)cc2)C(=O)N3)cc1Cl` (single isomer, unassigned) [Example 9] the same measures were 0.819 µM and 1.47 µM.
With `CC(C)(C)CCc1ccc(C23CCC(C)(C)C2=CN(c2ccc(C(=O)O)cc2)C(=O)N3)cc1Cl` (single isomer, unassigned) [Example 10, 4-{7a-[3-Chloro-4-(3,3-dimethyl-butyl)phenyl]-5,5-dimethyl-2-oxo-1,2,5,6,7,7a-hexahydro-cyclopentapyrimidin-3-yl}benzoic acid], the figures for the EC50 in test [1] and in test [2] were 0.016 µM and 0.03 µM, respectively.
As to `C[C@@H]1CCC2(c3ccc(CCC(C)(C)C)c(Cl)c3)NC(=O)N(CCC(=O)O)C=C12` (single isomer, unassigned) [Example 11], the values for the EC50 in test [1] and in test [2] were 0.021 µM and 0.022 µM, respectively.
Turning to `C[C@@H]1CCC2(c3ccc(CCC(C)(C)C)c(Cl)c3)NC(=O)N(CCC(=O)O)C=C12` (single isomer, unassigned) [Example 12], the EC50 turned out to be 2.58 µM in test [1] and 3.43 µM in test [2].
On to `CC(C)(C)CCc1ccc([C@]23COC(COCc4ccccc4)C2=CN(CCC(=O)O)C(=O)N3)cc1Cl` (single isomer, unassigned) [Example 15], for which the half-maximal effective concentration (EC50) in test [1] and in test [2] was more than 8 µM each time.
On to `CC(C)(C)CCc1ccc([C@@]23COC(COCc4ccccc4)C2=CN(CCC(=O)O)C(=O)N3)cc1Cl` (single isomer, unassigned) [Example 16], for which the EC50 came out at 0.755 µM in test [1] and 0.774 µM in test [2].
`CC(C)(C)CCc1ccc([C@]23COC(CO)C2=CN(CCC(=O)O)C(=O)N3)cc1Cl` (single isomer, unassigned) [Example 17]: the EC50 in test [1] and in test [2] was more than 20 µM each time.
Turning to `CC(C)(C)CCc1ccc([C@@]23COC(CO)C2=CN(CCC(=O)O)C(=O)N3)cc1Cl` (single isomer, unassigned) [Example 18], the EC50 in test [1] is 0.773 µM; in test [2], 0.452 µM.
Take `COCC1OC[C@]2(c3ccc(CCC(C)(C)C)c(Cl)c3)NC(=O)N(CCC(=O)O)C=C12` (single isomer, unassigned) [Example 19]: the EC50 in test [1] came out at 17.1 µM; in test [2], 15.6 µM.
For `COCC1OC[C@@]2(c3ccc(CCC(C)(C)C)c(Cl)c3)NC(=O)N(CCC(=O)O)C=C12` (single isomer, unassigned) [Example 20] the same measures were 0.025 µM and 0.025 µM.
For `CC(C)(C)CCc1ccc(C23COC(COC(C)(C)C)C2=CN(CCC(=O)O)C(=O)N3)cc1Cl` (single isomer, unassigned) [Example 21], the EC50 in test [1] was determined as 2.26 µM; in test [2], 1.27 µM.
As to `CC(C)(C)CCc1ccc(C23COC(COC(C)(C)C)C2=CN(CCC(=O)O)C(=O)N3)cc1Cl` (single isomer, unassigned) [Example 22], the EC50 in test [1] is 16.2 µM; in test [2], more than 8 µM.
`CC(C)(C)CCc1ccc(C23CCC(CCO)C2=CN(CCC(=O)O)C(=O)N3)cc1Cl` (single isomer, unassigned) [Example 25]: the EC50 is 0.092 µM in test [1] and 0.105 µM in test [2].
With `CC(C)(C)CCc1ccc(C23CCC(CCOCc4ccccc4)C2=CN(CCC(=O)O)C(=O)N3)cc1Cl` (single isomer, unassigned) [Example 26], the EC50 in test [1] was determined as 0.351 µM; in test [2], 0.243 µM.
In the case of `COCCC1CCC2(c3ccc(CCC(C)(C)C)c(Cl)c3)NC(=O)N(CCC(=O)O)C=C12` (single isomer, unassigned) [Example 27, 3-{7a-[3-Chloro-4-(3,3-dimethyl-butyl)phenyl]-5-(2-methoxy-ethyl)-2-oxo-1,2,5,6,7,7a-hexahydro-cyclopentapyrimidin-3-yl}propionate], the EC50 in test [1] was found to be 0.027 µM; in test [2] it was 0.039 µM.
For the compound `CN(C)CCC1CCC2(c3ccc(CCC(C)(C)C)c(Cl)c3)NC(=O)N(CCC(=O)O)C=C12` (single isomer, unassigned) [Example 28], the EC50 in test [1] and in test [2] was more than 20 µM each time.
Turning to `CC(C)(C)CCc1ccc(C23CCC(CO)C2=CN(CCC(=O)O)C(=O)N3)cc1Cl` (single isomer, unassigned) [Example 29], the EC50 was 0.173 µM in test [1] and 0.103 µM in test [2].
Consider `CC(C)(C)CCc1ccc(C23CC(C)(C)CC2=CN(CCC(=O)O)C(=O)N3)cc1Cl` (single isomer, unassigned) [Example 32], for which the EC50 in test [1] came to 0.021 µM; in test [2] it was 0.018 µM.
Taken in the same sequence, the figures for `CC(C)(C)CCc1ccc(C23CC(C)(C)CC2=CN(CCC(=O)O)C(=O)N3)cc1Cl` (single isomer, unassigned) [Example 33] were 2.96 µM and more than 3.2 µM.
